Reference: PubChem BioAssay AID2060912 (Molecular Pharmacology Branch, DTP, NCI, 2025)

System: HUVEC/MSC spheroids viability
Experiment: Human HUVEC/MSC cell line growth inhibition [KRAS2];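 on viability, T/C: percent of DMSO vehicle control luminescence so 100% = untreated viability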
Conditions: for IC50: curve of first compound; for viability, T/C: stronger effect = lower value
Description: Multicellular complex tumor spheroid response to RAS pathway inhibitors in combination with a targeted agents in patient-derived cell lines with oncogenic KRAS variants from multiple cancer types
A high-throughput screen of multi-cell type tumor spheroids was designed to identify active combinations of targeted small molecules and KRAS pathway inhibitors. Complex spheroids include a stromal component modeled by human endothelial cells (HUVEC) and fibroblasts modeled by human mesenchymal stem cells (MSCs). The concentration ranges selected for each drug and investigational agent were based upon clinically achievable concentrations if the clinical Cmax of the agent was known. * [This particular assayID is a followup dataset requested by reviewers of the manuscript. It is a test of the HUVEC and MSC without the tumor cells, and was conducted using different drug plates and a different plate layout.]
Compounds. The drugs and investigational agents: BI-3406 (NSC825286), BAY-293 (NSC824723), batoprotafib (TNO155; NSC825523), sotorasib (AMG 510; NSC818433), MRTX1257 (NSC819558), elimusertib (BAY 1895344; NSC800525), molibresib (GSK525762; NSC774829), temuterkib (LY3214996; NSC803410), venetoclax (NSC766270), alisertib (NSC759677), olaparib (NSC753686), talazoparib (NSC767125), erdafitinib (NSC781556), ipatasertib (NSC767898), cabozantinib (NSC761068), nintedanib (NSC756659), abemaciclib (NSC768073), docetaxel (NSC628503), trametinib (NSC758246), and sapanisertib (NSC764658) were obtained from the National Cancer Institute (NCI) Developmental Therapeutics Program Chemical Repository. The FDA-approved anticancer drug set is available from the Developmental Therapeutics Program. […] The stock solutions were prepared in dimethyl sulfoxide (DMSO, Sigma-Aldrich, St. Louis, MO, cat. D2650) at 800-fold the tested concentration and stored at -70 degrees C prior to their use. All drugs and investigational agents were tested over a range starting from a high concentration at or near the clinical Cmax and decreasing in half-log increments. If the clinical Cmax for an agent had not been determined, the highest concentration tested was 10 microM.
Cell Culture. All cells were maintained in an incubator at 37 degrees C and 5% CO2 with 95% humidity. The PDC lines were cultured according to standard operating procedures established by the NCI PDMR (https://pdmr.cancer.gov/sops/default.htm). Briefly, all PDCs were thawed and cultured in Matrigel-coated flasks prepared with a working solution of 1X Ham's F-12 nutrient mix, without supplementation (Invitrogen, Waltham, MA, cat. 11765054), 100 U/mL penicillin-streptomycin (Invitrogen, cat. 15140122), and 2.5% Matrigel (Corning Inc., Corning, NY, cat. 354248) for the first three passages. All PDCs were cultured in complete DMEM/F-12 media containing advanced DMEM/F-12 (Invitrogen, cat. 12634028), 4.9% defined fetal bovine serum, heat inactivated (HyClone Laboratories Inc., Logan, UT, cat. SH30070.03HI), 389 ng/mL hydrocortisone (Sigma-Aldrich, cat. H4001), 9.7 ng/mL human EGF recombinant protein (Invitrogen, cat. PHG0313), 23.4 microg/mL adenine (Sigma-Aldrich, cat. A2786), 97.3 U/mL penicillin-streptomycin (Invitrogen, cat. 15140122), 1.9 mM L-glutamine (Invitrogen, cat. 25030081), and 9.7 microM Y-27632 dihydrochloride (Tocris Bioscience, Bristol, United Kingdom, cat. 1254). The PDCs were cultured in complete DMEM/F12 media without 9.7 microM Y-27632 dihydrochloride for at least two passages prior to the screen. The established cell line HOP-62 was cultured in RPMI 1640 medium, HEPES (Invitrogen, cat. 22400105) with 10% defined fetal bovine serum (HyClone Laboratories Inc., cat. SH30070.03) and 2 mM L-glutamine (Invitrogen, cat. 25030081). The pooled donor HUVEC were cultured in endothelial cell growth medium 2 (PromoCell, Heidelberg, Germany, cat. C-22011) and the hMSC were cultured in mesenchymal stem cell growth medium 2 (PromoCell, cat. C-28009). […]

CC(=O)Nc1cccc(-n2c(=O)n(C3CC3)c(=O)c3c(Nc4ccc(I)cc4F)n(C)c(=O)c(C)c32)c1 + C=CC(=O)N1CCN(c2nc(=O)n(-c3c(C)ccnc3C(C)C)c3nc(-c4c(O)cccc4F)c(F)cc23)C(C)C1
IC50 (second compound 0.0316 µM): 16.1 nM | IC50 (second compound 0.1 µM): 17.8 nM | IC50 (second compound 0.316 µM): 16.8 nM | IC50 (second compound 1 µM): 17.9 nM | IC50 (second compound 3.16 µM): 16.3 nM | IC50 (second compound 10 µM): 13.7 nM | viability, T/C (second compound 0.0316 µM, first compound 94.9 pM): 126% | viability, T/C (second compound 0.0316 µM, first compound 0.0003 µM): 140% | viability, T/C (second compound 0.0316 µM, first compound 0.000949 µM): 163% | viability, T/C (second compound 0.0316 µM, first compound 0.003 µM): 114% | viability, T/C (second compound 0.0316 µM, first compound 0.00949 µM): 77.1% | viability, T/C (second compound 0.0316 µM, first compound 0.03 µM): 20.7% | viability, T/C (second compound 0.1 µM, first compound 94.9 pM): 92.7% | viability, T/C (second compound 0.1 µM, first compound 0.0003 µM): 130% | viability, T/C (second compound 0.1 µM, first compound 0.000949 µM): 141% | viability, T/C (second compound 0.1 µM, first compound 0.003 µM): 113% | viability, T/C (second compound 0.1 µM, first compound 0.00949 µM): 88.3% | viability, T/C (second compound 0.1 µM, first compound 0.03 µM): 18.6% | viability, T/C (second compound 0.316 µM, first compound 94.9 pM): 126% | viability, T/C (second compound 0.316 µM, first compound 0.0003 µM): 157% | viability, T/C (second compound 0.316 µM, first compound 0.000949 µM): 151% | viability, T/C (second compound 0.316 µM, first compound 0.003 µM): 119% | viability, T/C (second compound 0.316 µM, first compound 0.00949 µM): 80.3% | viability, T/C (second compound 0.316 µM, first compound 0.03 µM): 20.6% | viability, T/C (second compound 1 µM, first compound 94.9 pM): 148% | viability, T/C (second compound 1 µM, first compound 0.0003 µM): 133% | viability, T/C (second compound 1 µM, first compound 0.000949 µM): 148% | viability, T/C (second compound 1 µM, first compound 0.003 µM): 112% | viability, T/C (second compound 1 µM, first compound 0.00949 µM): 89.8% | viability, T/C (second compound 1 µM, first compound 0.03 µM): 19.7% | viability, T/C (second compound 3.16 µM, first compound 94.9 pM): 144% | viability, T/C (second compound 3.16 µM, first compound 0.0003 µM): 157% | viability, T/C (second compound 3.16 µM, first compound 0.000949 µM): 170% | viability, T/C (second compound 3.16 µM, first compound 0.003 µM): 120% | viability, T/C (second compound 3.16 µM, first compound 0.00949 µM): 82% | viability, T/C (second compound 3.16 µM, first compound 0.03 µM): 16.8% | viability, T/C (second compound 10 µM, first compound 94.9 pM): 134% | viability, T/C (second compound 10 µM, first compound 0.0003 µM): 157% | viability, T/C (second compound 10 µM, first compound 0.000949 µM): 164% | viability, T/C (second compound 10 µM, first compound 0.003 µM): 130% | viability, T/C (second compound 10 µM, first compound 0.00949 µM): 70.4% | viability, T/C (second compound 10 µM, first compound 0.03 µM): 8.78%

O=C(c1cc(Cc2n[nH]c(=O)c3ccccc23)ccc1F)N1CCN(C(=O)C2CC2)CC1 + C=CC(=O)N1CCN(c2nc(OCC3CCCN3C)nc3c2CCN(c2cccc4cccc(C)c24)C3)CC1CC#N
IC50 (second compound 0.00949 µM): > 10000 nM | IC50 (second compound 0.03 µM): > 10000 nM | IC50 (second compound 0.0949 µM): > 10000 nM | IC50 (second compound 0.3 µM): > 10000 nM | IC50 (second compound 0.949 µM): > 10000 nM | IC50 (second compound 3 µM): > 10000 nM | viability, T/C (second compound 0.00949 µM, first compound 0.0316 µM): 80.8% | viability, T/C (second compound 0.00949 µM, first compound 0.1 µM): 101% | viability, T/C (second compound 0.00949 µM, first compound 0.316 µM): 89.4% | viability, T/C (second compound 0.00949 µM, first compound 1 µM): 82.3% | viability, T/C (second compound 0.00949 µM, first compound 3.16 µM): 80.9% | viability, T/C (second compound 0.00949 µM, first compound 10 µM): 112% | viability, T/C (second compound 0.03 µM, first compound 0.0316 µM): 78.2% | viability, T/C (second compound 0.03 µM, first compound 0.1 µM): 96.2% | viability, T/C (second compound 0.03 µM, first compound 0.316 µM): 98.7% | viability, T/C (second compound 0.03 µM, first compound 1 µM): 81.2% | viability, T/C (second compound 0.03 µM, first compound 3.16 µM): 103% | viability, T/C (second compound 0.03 µM, first compound 10 µM): 83.7% | viability, T/C (second compound 0.0949 µM, first compound 0.0316 µM): 91.8% | viability, T/C (second compound 0.0949 µM, first compound 0.1 µM): 87.8% | viability, T/C (second compound 0.0949 µM, first compound 0.316 µM): 77.2% | viability, T/C (second compound 0.0949 µM, first compound 1 µM): 101% | viability, T/C (second compound 0.0949 µM, first compound 3.16 µM): 88.4% | viability, T/C (second compound 0.0949 µM, first compound 10 µM): 100% | viability, T/C (second compound 0.3 µM, first compound 0.0316 µM): 71% | viability, T/C (second compound 0.3 µM, first compound 0.1 µM): 91.9% | viability, T/C (second compound 0.3 µM, first compound 0.316 µM): 86.1% | viability, T/C (second compound 0.3 µM, first compound 1 µM): 73.7% | viability, T/C (second compound 0.3 µM, first compound 3.16 µM): 82.8% | viability, T/C (second compound 0.3 µM, first compound 10 µM): 81.8% | viability, T/C (second compound 0.949 µM, first compound 0.0316 µM): 68.4% | viability, T/C (second compound 0.949 µM, first compound 0.1 µM): 84.9% | viability, T/C (second compound 0.949 µM, first compound 0.316 µM): 84.1% | viability, T/C (second compound 0.949 µM, first compound 1 µM): 88.8% | viability, T/C (second compound 0.949 µM, first compound 3.16 µM): 89.8% | viability, T/C (second compound 0.949 µM, first compound 10 µM): 85.2% | viability, T/C (second compound 3 µM, first compound 0.0316 µM): 91.5% | viability, T/C (second compound 3 µM, first compound 0.1 µM): 79.5% | viability, T/C (second compound 3 µM, first compound 0.316 µM): 111% | viability, T/C (second compound 3 µM, first compound 1 µM): 102% | viability, T/C (second compound 3 µM, first compound 3.16 µM): 107% | viability, T/C (second compound 3 µM, first compound 10 µM): 89.7%
